Assay results published in patent US9211336B2, “Antioxidant stabilized pharmaceutical formulations comprising antineoplastic compounds” (Hikma Pharmaceuticals, priority 2013, dated 2015).

Experiments:
[1] = Stability study, effect of pH: temozolomide solutions in various buffers; format: physicochemical
[2] = solid powder, 1 month 40° C./75% RH; weight percentage
Procedure: In the tested formulations, the weight percentages of certain degradation products were measured.

[3] = only stable in acidic conditions; cited from earlier work
[4] = Effect of controlled preparation temperature on dissolution of temozolomide

Cn1nnc2c(C(N)=O)ncn2c1=O [Temozolomide, 3,4-dihydro-3-methyl-4-oxoimidazo[5,1-d]-as-tetrazine-8-carboxamide]
Stability after 1 hr (temozolomide as % of amount originally added) ([1]; 0.1N HCl pH = 1.1): 101.7% | Stability after 5 hr ([1]; 0.1N HCl pH = 1.1): 100.2% | Stability after 6 hr ([1]; 0.1N HCl pH = 1.1): 99.8% | Stability after 1 hr (temozolomide as % of amount originally added) ([1]; Acetate Buffer pH = 4.5): 99.2% | Stability after 5 hr ([1]; Acetate Buffer pH = 4.5): 98.1% | Stability after 6 hr ([1]; Acetate Buffer pH = 4.5): 98.2% | Stability after 1 hr (temozolomide as % of amount originally added) ([1]; Hydrochloride Buffer pH = 2.2): 99.1% | Stability after 5 hr ([1]; Hydrochloride Buffer pH = 2.2): 98.6% | Stability after 6 hr ([1]; Hydrochloride Buffer pH = 2.2): 99.0% | Stability after 5 min ([1]; Phosphate Buffer pH = 6.8): 100.1% | Stability after 10 min ([1]; Phosphate Buffer pH = 6.8): 99.8% | Stability after 15 min ([1]; Phosphate Buffer pH = 6.8): 99.0% | Stability after 30 min ([1]; Phosphate Buffer pH = 6.8): 98.0% | Stability after 5 min ([1]; Phosphate Buffer pH = 7.5): 99.4% | Stability after 10 min ([1]; Phosphate Buffer pH = 7.5): 99.0% | Stability after 15 min ([1]; Phosphate Buffer pH = 7.5): 97.8% | Stability after 30 min ([1]; Phosphate Buffer pH = 7.5): 90.5% | Stability after 5 min ([1]; Water): 99.9% | Stability after 10 min ([1]; Water): 99.6% | Stability after 15 min ([1]; Water): 98.8% | Stability after 30 min ([1]; Water): 97.6% | Dacarbazine-related compound A [2]: 8.4% | Max. Unknown [2]: 0.22% | pH at which stable [3]: less than 5 | Observation (dissolution of temozolomide) ([4]; Prep Temp 10 ° C., About 3 hrs): Temozolomide did not dissolve | Observation (dissolution of temozolomide) ([4]; Prep Temp 15 ° C., About 2 hrs): Temozolomide did not dissolve | Observation (dissolution of temozolomide) ([4]; Prep Temp 18 ° C.): Temozolomide dissolved | Time (to dissolve) ([4]; Prep Temp 18 ° C.): About 0.5 to 0.75 hrs | Observation (dissolution of temozolomide) ([4]; Prep Temp 19 ° C.): Temozolomide dissolved | Time (to dissolve) ([4]; Prep Temp 19 ° C.): About 0.5 to 0.75 hrs | Observation (dissolution of temozolomide) ([4]; Prep Temp 20 ° C.): Temozolomide dissolved | Time (to dissolve) ([4]; Prep Temp 20 ° C.): About 0.5 to 0.75 hrs | Observation (dissolution of temozolomide) ([4]; Prep Temp 24 ° C.): Temozolomide dissolved | Time (to dissolve) ([4]; Prep Temp 24 ° C.): About 0.5 to 0.75 hrs | Observation (dissolution of temozolomide) ([4]; Prep Temp 25 ° C.): Temozolomide dissolved | Time (to dissolve) ([4]; Prep Temp 25 ° C.): About 0.5 to 0.75 hrs
